Like-named read-outs stand apart in the source and are kept apart here. Each block holds one compound with its values, some of them ahead of it.
Columns and labels:
[1] = biological target: T1, aldose reductase from rat lens (Rattus norvegicus, UniProt P07943); assay: Aldose reductase inhibiting activity; format: biochemical; details: DL-glyceraldehyde substrate, Table 2, read-out: IC50 (50% inhibition concentration in M)
T1 construct: the supernatant was prepared as the crude enzyme solution; from tissue; host or cells: lens of male Wistar rats, 10,000 g supernatant of homogenate (crude enzyme)
Procedure: Wistar male rats were sacrificed by decapitation and the lenses were taken out to be homogenized with a 0.1M phosphate buffer [pH 6.8, containing 1 mM of mercaptoethanol and 1 mM of nicotinamide-adenine dinucleotide phosphate (NADP)]. The homogenate was then centrifuged at 10,000 g for 15 minutes and the supernatant was prepared as the crude enzyme solution.

mice = assay: Acute toxicity test in mice (oral); details: mice, oral, up to 3 g/kg
Procedure: (§1) Acute toxicity test in mice was carried out on the benzofuran derivatives of the compound Nos. 3, 5, 9, 21, 23, 26, 29 and 34.

[2] = Acute toxicity test in mice (oral); details: mouse, in vivo, po
Procedure: as §1

[3] = test system: aggregation of the washed rabbit platelet by thrombin; assay: Platelet aggregation inhibiting activity (washed rabbit platelet, thrombin); format: cell-based; details: for IC50: Oryctolagus cuniculus, Platelet; for platelet aggregation inhibiting activity relative to Persantin: compared with Persantin (dipyridamole)
Procedure: Blood samples were collected from the auricular blood vessel of rabbits (white local breed), and washed platelets were prepared therefrom by the method of Baenziger et al. (N. L. Baenziger and P. W. Majerus, Methods Enzymol., 31, 149 to 155 (1974). The platelets were suspended in a 15 mM Tris-hydrochloric acid buffer with a final concentration of 6×10^8 cells/ml (Tris: tris(hydroxymethyl)aminomethane). Each test compound of the compound Nos. 5, 8, 9, 11, 23, 29, 30 and 33 and Persantin® was added thereto and incubation was carried out at 37° C. for 2 minutes. Then the platelets were stimulated by addition of thrombin (0.2 unit/ml of final concentration; made by Mochida Pharmaceutical Co.) and the aggregation inhibiting activity was estimated by the observation of the aggregation reaction using an aggregometer (made by Briston Co.).
The results are shown in Table 3 in terms of IC50 (50% inhibiton concentration in M).

cyclooxygenase = assay: Cyclooxygenase inhibition: malondialdehyde production from arachidonic acid, 9000 G supernatant of lung homogenate from guinea pig; format: biochemical; details: guinea pig lung 9000 G supernatant, compared with aspirin
Procedure: Lung from guinea pig was washed with physiological saline and homogenized in 0.1M Tris-hydrochloric acid buffer to prepare a supernatant by cooled centrifugation (9000 G).
The inhibiting activity against cyclooxygenase was measured by using the 9000 G supernatant as a source of cyclooxygenase in the presence of 1 mM epinephiline.

[4] = test system: production of malondialdehyde from arachidonic acid by rabbit platelets; assay: Arachidonic acid metabolism inhibiting activity: production of malondialdehyde from arachidonic acid by rabbit platelets; format: cell-based; details: Oryctolagus cuniculus, Platelet, arachidonic acid 0.2 mM, read-out: concentration showing 50% inhibition against the production of malondialdehyde from arachidonic acid
Procedure: Washed rabbit platelets prepared as in the platelet aggregation inhibiting activity test were suspended in 15 mM Tris-hydrochloric acid buffer with a final concentration of 1×10^8 cell/ml, to which each test compound of the compound Nos. 8, 13, 14, 19, 20, 23, 29, 30 and 33 were added and the resultant was preincubated at 37° C. for five minutes. Then arachidonic acid (a final concentration: 0.2 mM, made by Sigma Chemical Co.) was added thereto and the mixture was preincubated for 1 minute. An amount of the produced malondialdehyde was measured according to the thiobarbiturates method (Ed. Aoki and Shibata, Ketsuekigaku Kenkyukensaho, P 441 to 447).

[5] = washed rabbit platelets, thrombin 0.2 unit/ml, 37° C., Table 3, read-out: IC50 (50% inhibition concentration in M)
[6] = range for nine compounds, read-out: concentration showing 50% inhibition against the aggregation of the washed rabbit platelet by thrombin

SMILES: COc1ccc(S(=O)(=O)NCC(=O)O)c2cc(C(C)=O)oc12 [Compound 1, 2-acetyl-4-(N-carboxymethylsulfamoyl)-7-methoxybenzofuran]
IC50 [1]: 200 nM

SMILES: CCOc1ccc(S(=O)(=O)NCC(=O)O)c2cc(C(C)=O)oc12 [Compound 2, 2-acetyl-4-(N-carboxymethylsulfamoyl)-7-ethoxybenzofuran]
IC50 [1]: 100 nM

SMILES: CCCOc1ccc(S(=O)(=O)NCC(=O)O)c2cc(C(C)=O)oc12 [Compound 3, 2-acetyl-4-(N-carboxymethylsulfamoyl)-7-n-propoxybenzofuran]
IC50 [1]: 60 nM
death up to the dose of 3 g/kg body weight (mice): no death
LD50 at 336 h [2]: > 3000 mg/kg

SMILES: CCCCOc1ccc(S(=O)(=O)NCC(=O)O)c2cc(C(C)=O)oc12 [Compound 4, 2-acetyl-4-(N-carboxymethylsulfamoyl)-7-n-butoxybenzofuran]
IC50 [1]: 40 nM

SMILES: CCCCCCOc1ccc(S(=O)(=O)NCC(=O)O)c2cc(C(C)=O)oc12 [Compound 6, 2-acetyl-4-(N-carboxymethylsulfamoyl)-7-n-hexyloxybenzofuran]
IC50 [1]: 50 nM

SMILES: CCCCCCCOc1ccc(S(=O)(=O)NCC(=O)O)c2cc(C(C)=O)oc12 [Compound 7, 2-acetyl-4-(N-carboxymethylsulfamoyl)-7-n-heptyloxybenzofuran]
IC50 [3, 5]: 150 µM
IC50 [1]: 30 nM

SMILES: CC(=O)c1cc2c(S(=O)(=O)NCC(=O)O)ccc(OCC(=O)O)c2o1 [Compound 8, 2-acetyl-4-(N-carboxymethylsulfamoyl)-7-(carboxymethoxy)benzofuran]
inhibition against malondialdehyde production relative to aspirin (cyclooxygenase): equivalent to or more than
IC50 [4]: 10 to 100 µM
IC50 [3, 6]: 20 to 200 µM
IC50 [3, 5]: 130 µM
platelet aggregation inhibiting activity relative to Persantin [3]: equivalent to or more than
IC50 [1]: 200 nM

SMILES: CCCCOc1ccc(S(=O)(=O)N(C)C(C)C(=O)O)c2cc(C(C)=O)oc12 (stereo not shown) [Compound 10, 2-acetyl-4-(N-methyl-N-(1-carboxyethyl)sulfamoyl)-7-n-butoxybenzofuran]
IC50 [3, 6]: 20 to 200 µM
IC50 [3, 5]: 160 µM
platelet aggregation inhibiting activity relative to Persantin [3]: equivalent to or more than
IC50 [1]: 7000 nM

SMILES: CCCCOc1ccc(S(=O)(=O)NC(C)C(=O)O)c2cc(C(C)=O)oc12 (stereo not shown) [Compound 11, 2-acetyl-4-(N-(1-carboxyethyl)sulfamoyl)-7-n-butoxybenzofuran]
IC50 [3, 6]: 20 to 200 µM
IC50 [3, 5]: 160 µM
platelet aggregation inhibiting activity relative to Persantin [3]: equivalent to or more than
IC50 [1]: 5000 nM

SMILES: O=C(O)CNS(=O)(=O)c1ccc(OCC(=O)O)c2oc(C(=O)O)cc12 [Compound 12, 2-carboxy-4-(N-carboxymethylsulfamoyl)-7-(carboxymethoxy)benzofuran]
IC50 [1]: 200 nM

SMILES: COc1ccc(S(=O)(=O)NCC(=O)O)c2cc(C(=O)O)oc12 [Compound 13, 2-carboxy-4-(N-carboxymethylsulfamoyl)-7-methoxybenzofuran]
inhibition against malondialdehyde production relative to aspirin (cyclooxygenase): equivalent to or more than
IC50 [4]: 10 to 100 µM
IC50 [1]: 100 nM

SMILES: CCOc1ccc(S(=O)(=O)NCC(=O)O)c2cc(C(=O)O)oc12 [Compound 14, 2-carboxy-4-(N-carboxymethylsulfamoyl)-7-ethoxybenzofuran]
inhibition against malondialdehyde production relative to aspirin (cyclooxygenase): equivalent to or more than
IC50 [4]: 10 to 100 µM
IC50 [1]: 70 nM

SMILES: CC(=O)c1cc2c(S(=O)(=O)NCC(=O)O)ccc(C)c2o1 [Compound 15, 2-acetyl-4-(N-carboxymethylsulfamoyl)-7-methylbenzofuran]
IC50 [1]: 500 nM

SMILES: CCc1oc2ccc([N+](=O)[O-])cc2c1S(=O)(=O)NCC(=O)O [Compound 21, 2-ethyl-3-(N-carboxymethylsulfamoyl)-5-nitrobenzofuran]
IC50 [1]: 50 nM
death up to the dose of 3 g/kg body weight (mice): no death
LD50 at 336 h [2]: > 3000 mg/kg

Second part, led by results:

IC50 [1]: 400 nM
SMILES: CCC(C)c1ccc(S(=O)(=O)NCC(=O)O)c2cc(C(C)=O)oc12 (stereo not shown) [Compound 16, 2-acetyl-4-(N-carboxymethylsulfamoyl)-7-sec-butylbenzofuran]

IC50 [1]: 2000 nM
SMILES: CC(=O)c1cc2c(S(=O)(=O)NCC(=O)O)c3c(cc2o1)OCO3 [Compound 17, 2-acetyl-4-(N-carboxymethylsulfamoyl)-5,6-methylenedioxybenzofuran]

IC50 [1]: 5000 nM
SMILES: COc1ccc(S(=O)(=O)NCC(=O)O)c2oc(C(C)=O)cc12 [Compound 18, 2-acetyl-4-methoxy-7-(N-carboxymethylsulfamoyl)benzofuran]

inhibition against malondialdehyde production relative to aspirin (cyclooxygenase): equivalent to or more than
IC50 [4]: 10 to 100 µM
IC50 [1]: 2000 nM
SMILES: COc1ccc(S(=O)(=O)NCC(=O)O)c2cc(C3(C)NC(=O)NC3=O)oc12 (stereo not shown) [Compound 19, 2-(4-methyl-2,5-dioxoimidazolidine-4-yl)-4-(N-carboxymethylsulfamoyl)-7-methoxybenzofuran]

inhibition against malondialdehyde production relative to aspirin (cyclooxygenase): equivalent to or more than
IC50 [4]: 10 to 100 µM
IC50 [1]: 300 nM
SMILES: COc1c(S(=O)(=O)NCC(=O)O)cc(S(=O)(=O)NCC(=O)O)c2cc(C3(C)NC(=O)NC3=O)oc12 (stereo not shown) [Compound 20, 2-(4-methyl-2,5-dioxoimidazolidine-4-yl)-4,6-di(N-carboxymethylsulfamoyl)-7-methoxybenzofuran]

IC50 [1]: 50 nM
SMILES: CCc1oc2ccc(NC(C)=O)cc2c1S(=O)(=O)NCC(=O)O [Compound 22, 2-ethyl-3-(N-carboxymethylsulfamoyl)-5-acetylaminobenzofuran]

IC50 [1]: 30 nM
SMILES: COc1ccc(COc2ccc(S(=O)(=O)NCC(=O)O)c3cc(C(C)=O)oc23)cc1 [Compound 24, 2-acetyl-4-(N-carboxymethylsulfamoyl)-7-p-methoxybenzyloxybenzofuran]

IC50 [1]: 200 nM
SMILES: CC(=O)c1cc2c(S(=O)(=O)NCC(=O)O)ccc(OCC(C)Cl)c2o1 (stereo not shown) [Compound 25, 2-acetyl-4-(N-carboxymethylsulfamoyl)-7-(2-chloropropyloxy)benzofuran]

IC50 [1]: 100 nM
SMILES: CC(=O)c1cc2c(S(=O)(=O)NCC(=O)O)ccc(OCC#N)c2o1 [Compound 27, 2-acetyl-4-(N-carboxymethylsulfamoyl)-7-cyanomethyloxybenzofuran]

IC50 [1]: 80 nM
SMILES: CC(=O)c1cc2c(S(=O)(=O)NCC(=O)O)ccc(O)c2o1 [Compound 28, 2-acetyl-4-(N-carboxymethylsulfamoyl)-7-hydroxybenzofuran]

inhibition against malondialdehyde production relative to aspirin (cyclooxygenase): equivalent to or more than
IC50 [4]: 10 to 100 µM
IC50 [3, 6]: 20 to 200 µM
IC50 [3, 5]: 30 µM
IC50 [1]: 40 nM
SMILES: CC(=O)c1cc2c(S(=O)(=O)NCC(=O)O)ccc(OCc3ccc(Cl)cc3)c2o1 [Compound 30, 2-acetyl-4-(N-carboxymethylsulfamoyl)-7-p-chlorobenzyloxybenzofuran]
platelet aggregation inhibiting activity relative to Persantin [3]: equivalent to or more than

IC50 [1]: 50 nM
SMILES: C=CCOc1ccc(S(=O)(=O)NCC(=O)O)c2cc(C(C)=O)oc12 [Compound 31, 2-acetyl-4-(N-carboxymethylsulfamoyl)-7-allyloxybenzofuran]

IC50 [1]: 30 nM
SMILES: C=CCCOc1ccc(S(=O)(=O)NCC(=O)O)c2cc(C(C)=O)oc12 [Compound 32, 2-acetyl-4-(N-carboxymethylsulfamoyl)-7-(3-butenyloxy)benzofuran]

inhibition against malondialdehyde production relative to aspirin (cyclooxygenase): equivalent to or more than
IC50 [4]: 10 to 100 µM
IC50 [3, 6]: 20 to 200 µM
IC50 [3, 5]: 20 µM
IC50 [1]: 800 nM
SMILES: COc1ccc(COc2ccc(S(=O)(=O)N(CC(=O)O)Cc3ccc(OC)cc3)c3cc(C(C)=O)oc23)cc1 [Compound 33, 2-acetyl-4-(N-p-methoxybenzyl-N-carboxymethylsulfamoyl)-7-p-methoxybenzyloxybenzofuran]
platelet aggregation inhibiting activity relative to Persantin [3]: equivalent to or more than

IC50 [1]: 700 nM
SMILES: CC(=O)c1cc2c(S(=O)(=O)N(CC(=O)O)Cc3ccccc3)ccc(OCc3ccccc3)c2o1 [Compound 35, 2-acetyl-4-(N-benzyl-N-carboxymethylsulfamoyl)-7-benzyloxybenzofuran]

IC50 [3, 5]: 200 µM
SMILES: OCCN(CCO)c1nc(N2CCCCC2)c2nc(N(CCO)CCO)nc(N3CCCCC3)c2n1 [Persantin ®, dipyridamole, reference compound]
